These are literature values, as cited in patent US20240390363A1, “GRANULES CONTAINING POSACONAZOLE” (ALFRED E. TIEFENBACHER (GMBH & CO. KG), priority 2021, published 2024).

For data set [1] the following is noted: forms compared with form I.
The conditions of data set [2]: storage or stress conditions; form IV: aqueous suspension.

With `CC[C@@H]([C@H](C)O)n1ncn(-c2ccc(N3CCN(c4ccc(OC[C@@H]5CO[C@@](Cn6cncn6)(c6ccc(F)cc6F)C5)cc4)CC3)cc2)c1=O` [Posaconazole], the “Aqueous / water solubility” value in data set [1] is on record as “low aqueous solubility”. Take `CC[C@@H]([C@H](C)O)n1ncn(-c2ccc(N3CCN(c4ccc(OC[C@@H]5CO[C@@](Cn6cncn6)(c6ccc(F)cc6F)C5)cc4)CC3)cc2)c1=O` [form IV, posaconazole]: in data set [2], the “Stability of the crystalline form” value was “better stability in an aqueous suspension”. For the same molecule, the “Aqueous / water solubility” value in data set [1] is “better water solubility”. In the case of `CC[C@@H]([C@H](C)O)n1ncn(-c2ccc(N3CCN(c4ccc(OC[C@@H]5CO[C@@](Cn6cncn6)(c6ccc(F)cc6F)C5)cc4)CC3)cc2)c1=O` [form Y, posaconazole], the “Stability of the crystalline form” value in data set [2] is recorded as “as stable as form I”. For the same molecule, the “Aqueous / water solubility” value in data set [1] is “better water solubility”.
